IC50 data for 27 compounds are collected here from patent publication US9403830B2, “Inhibitors of leukotriene production” (Boehringer Ingelheim International GmbH, priority 2012, dated 2016).

The structures appear in SMILES notation.

The test system of test [1] is LTB4 synthesis in human whole blood. The test can be described thus: human whole blood (HWB) assay, inhibition of LTB4 production. The format is cell-based. As to conditions: heparinized human whole blood, calcimycin 20 μM stimulation, plasma LTB4. The method, boiled down: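 Heparinized human whole blood preincubated with compound 15 min at 37 °C, then stimulated with 20 μM (final) calcimycin for 30 min at 37 °C. Plasma LTB4 measured by antibody-based HTRF; IC50 reported.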

In a further test the target is T1, human LTA4 hydrolase (Homo sapiens, UniProt P09960).
T1 sequence (P09960 1-611): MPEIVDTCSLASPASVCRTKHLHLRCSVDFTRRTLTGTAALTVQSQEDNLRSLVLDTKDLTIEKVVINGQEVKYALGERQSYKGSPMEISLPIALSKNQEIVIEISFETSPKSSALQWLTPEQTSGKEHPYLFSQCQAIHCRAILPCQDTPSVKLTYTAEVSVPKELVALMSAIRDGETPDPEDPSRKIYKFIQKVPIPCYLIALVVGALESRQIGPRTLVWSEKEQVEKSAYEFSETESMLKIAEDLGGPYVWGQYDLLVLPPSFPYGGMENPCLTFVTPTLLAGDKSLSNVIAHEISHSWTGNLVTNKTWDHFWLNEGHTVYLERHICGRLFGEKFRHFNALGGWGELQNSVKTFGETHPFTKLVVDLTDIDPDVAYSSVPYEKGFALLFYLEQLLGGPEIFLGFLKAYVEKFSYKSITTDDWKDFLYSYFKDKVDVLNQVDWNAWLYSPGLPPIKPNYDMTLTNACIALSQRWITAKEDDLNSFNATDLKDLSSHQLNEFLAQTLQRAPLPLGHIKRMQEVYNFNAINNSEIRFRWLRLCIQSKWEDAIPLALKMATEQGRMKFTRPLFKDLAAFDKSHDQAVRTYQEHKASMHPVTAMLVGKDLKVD
Description: LTA4H Enzyme assay (peptidase, Arg-AMC cleavage). The format is biochemical. The following applies: LTA4H enzyme 1 nM, Arg-AMC substrate 50 μM, room temperature 1 h, fluorescence 380/460 nm. The method, boiled down: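 Human LTA4H (1 nM final) incubated with compound and Arg-AMC (50 μM final) in 50 mM Tris-HCl pH 7.5, 100 mM KCl, 0.5% BSA, 1 h at room temperature. Product read as AMC fluorescence (ex 380/em 460 nm); IC50 reported.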

In general, IC50 refers to the midpoint of a concentration-inhibition curve.

Turning to `C[C@@H](NCc1ccc2cc(Oc3ccc(-c4ccn[nH]4)cn3)ccc2n1)C(N)=O` [Example 34, (R)-2-({6-[5-(2H-Pyrazol-3-yl)-pyridin-2-yloxy]-quinolin-2-ylmethyl}-amino)-propionamide], the IC50 turned out to be 800 nM in test [1] and 5.7 nM against human LTA4 hydrolase.
As to `CC[C@@H](C)NCc1nc2cc(Oc3ccc(-c4ccn[nH]4)cc3)ccc2[nH]1` [Example 180, ((R)-sec-Butyl)-{5-[4-(2H-pyrazol-3-yl)-phenoxy]-1H-benzoimidazol-2-ylmethyl}-amine], the 50% inhibitory concentration (IC50) is 150 nM in test [1] and 0.13 nM on human LTA4 hydrolase.
In the same order, the values of `c1cc(-c2ccc(Oc3ccc4nc(OCCN5CCOCC5)ccc4c3)nc2)[nH]n1` [Example 120, 2-(2-morpholin-4-yl-ethoxy)-6-[5-(2H-pyrazol-3-yl)-pyridin-2-yloxy]-quinoline] are 3100 nM and 25 nM.
Take `c1cc(-c2ccc(Oc3ccc4[nH]c(CN5C[C@@H]6CC[C@@H](C5)O6)nc4c3)cc2)[nH]n1` [Example 58, (1S,5S)-3-{5-[4-(2H-Pyrazol-3-yl)-phenoxy]-1H-benzoimidazol-2-ylmethyl}-8-oxa-3-aza-bicyclo[3.2.1]octane]: the IC50 in test [1] stood at 120 nM; against human LTA4 hydrolase, 0.13 nM.
On the same counts, the results for `O=C(CO)N1CCCC12CCN(Cc1ccc3cc(Oc4ccc(-c5ccn[nH]5)cn4)ccc3n1)CC2` [Example 50, 2-Hydroxy-1-(8-{6-[5-(2H-pyrazol-3-yl)-pyridin-2-yloxy]-quinolin-2-ylmethyl}-1,8-diaza-spiro[4.5]dec-1-yl)-ethanone] are 1100 nM and 2.8 nM.
In the same order, the values of `COCC1CCCCN1Cc1nc2cc(Oc3ccc(-c4ccn[nH]4)cc3)ccc2[nH]1` (stereo not drawn) [Example 168, 2-(2-Methoxymethyl-piperidin-1-ylmethyl)-5-[4-(2H-pyrazol-3-yl)-phenoxy]-1H-benzoimidazole] are 120 nM and 0.13 nM.
On the same counts, the results for `CO[C@H]1CCN(Cc2nc3cc(Oc4ccc(-c5ccn[nH]5)cc4)ccc3[nH]2)C1` [Example 226, 2-((S)-3-Methoxy-pyrrolidin-1-ylmethyl)-5-[4-(2H-pyrazol-3-yl)-phenoxy]-1H-benzoimidazole] are 170 nM and 0.3 nM.
As for `c1cc(-c2ccc(Oc3ccc4c(c3)OC(CN3CCCC3)C4)nc2)[nH]n1` (stereo not drawn) [Example 126, 5-(2H-Pyrazol-3-yl)-2-(2-pyrrolidin-1-ylmethyl-2,3-dihydro-benzofuran-6-yloxy)-pyridine], the IC50 came to 110 nM in test [1] and 0.51 nM against human LTA4 hydrolase.
Take `CN(Cc1nc2cc(Oc3ccc(-c4ccn[nH]4)cc3)ccc2[nH]1)C1CC1` [Example 179, Cyclopropyl-methyl-{5-[4-(2H-pyrazol-3-yl)-phenoxy]-1H-benzoimidazol-2-ylmethyl}-amine]: the values for the IC50 (in test [1]; against human LTA4 hydrolase) were 150 nM and 0.2 nM, respectively.
In the same order, the values of `COC(=O)c1ccc(C2CCN(Cc3nc4cc(Oc5ccc(-c6ccn[nH]6)cc5)ccc4[nH]3)CC2)cc1` [Example 151, 4-(1-{5-[4-(2H-Pyrazol-3-yl)-phenoxy]-1H-benzoimidazol-2-ylmethyl}-piperidin-4-yl)-benzoic acid methyl ester] are 310 nM and 0.4 nM.
On the same counts, the results for `CC1(C)COCCN1Cc1nc2cc(Oc3ccc(-c4ccn[nH]4)cc3)ccc2[nH]1` [Example 182, 2-(3,3-Dimethyl-moprholin-4-ylmethyl)-5-[4-(2H-pyrazol-3-yl)-phenoxy]-1H-benzoimidazole] are 150 nM and 0.062 nM.
On the same counts, the results for `OC1CCN(Cc2ccc3cc(Oc4ccc(-c5ccn[nH]5)cn4)ccc3n2)CC1` [Example 204, 1-{6-[5-(2H-Pyrazol-3-yl)-pyridin-2-yloxy]-quinolin-2-ylmethyl}-piperidin-4-ol] are 210 nM and 0.98 nM.
In the case of `COCCNCc1nc2cc(Oc3ccc(-c4ccn[nH]4)cc3)ccc2[nH]1` [Example 91, (2-Methoxy-ethyl)-{5-[4-(2H-pyrazol-3-yl)-phenoxy]-1H-benzoimidazol-2-ylmethyl}-amine], the IC50 in test [1] is 140 nM; at human LTA4 hydrolase, 0.21 nM.
In the same order, the values of `CC(=O)N1CC(CN(C)Cc2ccc3cc(Oc4ccc(-c5ccn[nH]5)cn4)ccc3n2)C1` [Example 36, 1-{3-[(Methyl-{6-[5-(2H-pyrazol-3-yl)-pyridin-2-yloxy]-quinolin-2-ylmethyl}-amino)-methyl]-azetidin-1-yl}-ethanone] are 240 nM and 0.98 nM.
`O=C1CCC(c2cn3cc(Oc4ccc(-c5ccn[nH]5)cc4)ccc3n2)CN1` (stereo not drawn) [Example 67, 5-{6-[4-(2H-Pyrazol-3-yl)-phenoxy]-imidazo[1,2-a]pyridin-2-yl}-piperidin-2-one]: the results for the IC50 (in test [1]; at human LTA4 hydrolase) were 480 nM and 1.4 nM, respectively.
On the same counts, the results for `CC(=O)N1CCN(c2ccc3cc(Oc4ccc(-c5ccn[nH]5)cn4)ccc3n2)CC1` [Example 115, 1-(4-{6-[5-(2H-Pyrazol-3-yl)-pyridin-2-yloxy]-quinolin-2-yl}-piperazin-1-yl)-ethanone] are 550 nM and 1.7 nM.
On to `c1cc(-c2ccc(Oc3ccc4[nH]c(CNCC5CCCO5)nc4c3)cc2)[nH]n1` (stereo not drawn) [Example 97, {5-[4-(2H-Pyrazol-3-yl)-phenoxy]-1H-benzoimidazol-2-ylmethyl}-(tetrahydro-furan-2-ylmethyl)-amine], for which the IC50 in test [1] came to 160 nM; on human LTA4 hydrolase it was 0.54 nM.
Take `CC(=O)N1CCN(Cc2ccc3cc(Oc4ccc(-c5ccn[nH]5)cn4)ccc3n2)[C@H](CO)C1` [Example 42, 1-((S)-3-Hydroxymethyl-4-{6-[5-(2H-pyrazol-3-yl)-pyridin-2-yloxy]-quinolin-2-ylmethyl}-piperazin-1-yl)-ethanone]: the IC50 in test [1] was found to be 360 nM; on human LTA4 hydrolase, 0.88 nM.
In the same order, the values of `CC(C)(O)CNC(=O)[C@H]1[C@@H]2CN(Cc3ccc4cc(Oc5ccc(-c6ccn[nH]6)cn5)ccc4n3)C[C@@H]21` [Example 40, (1α,5α,6α)-3-{6-[5-(2H-Pyrazol-3-yl)-pyridin-2-yloxy]-quinolin-2-ylmethyl}-3-aza-bicyclo[3.1.0]hexane-6-carboxylic acid (2-hydroxy-2-methyl-propyl)-amide] are 300 nM and 0.47 nM.
In the same order, the values of `c1cc(-c2ccc(Oc3ccc4nc(CN5CCOCC5)cn4c3)cc2)[nH]n1` [Example 250, 2-Morpholin-4-ylmethyl-6-[4-(2H-pyrazol-3-yl)-phenoxy]-imidazo[1,2-a]pyridine] are 210 nM and 0.57 nM.
On the same counts, the results for `O=C1CCC2(CCN(Cc3ccc4cc(Oc5ccc(-c6ccn[nH]6)cn5)ccc4n3)CC2)N1` [Example 30, 8-{6-[5-(2H-Pyrazol-3-yl)-pyridin-2-yloxy]-quinolin-2-ylmethyl}-1,8-diaza-spiro[4.5]decan-2-one] are 190 nM and 1.1 nM.
For `COC[C@H]1CCCN1Cc1nc2cc(Oc3ccc(-c4ccn[nH]4)cc3)ccc2[nH]1` [Example 167, 2-((R)-2-Methoxymethyl-pyrrolidin-1-ylmethyl)-5-[4-(2H-pyrazol-3-yl)-phenoxy]-1H-benzoimidazole], the IC50 in test [1] stood at 120 nM; against human LTA4 hydrolase, 0.14 nM.
As to `c1cc(-c2ccc(Oc3ccc4c(c3)OC(CN3CCCC3)C4)cc2)[nH]n1` (stereo not drawn) [Example 218, 5-[4-(2-Pyrrolidin-1-ylmethyl-2,3-dihydro-benzofuran-6-yloxy)-phenyl]-1H-pyrazole], the half-maximal inhibitory concentration (IC50) is 110 nM in test [1] and 0.097 nM against human LTA4 hydrolase.
In the same order, the values of `COCC1CCN(Cc2nc3cc(Oc4ccc(-c5ccn[nH]5)cc4)ccc3[nH]2)C1` (stereo not drawn) [Example 166, 2-(3-Methoxymethyl-pyrrolidin-1-ylmethyl)-5-[4-(2H-pyrazol-3-yl)-phenoxy]-1H-benzoimidazole] are 120 nM and 0.21 nM.
In the same order, the values of `C[C@H]1COC[C@H](C)N1Cc1nc2cc(Oc3ccc(-c4ccn[nH]4)cc3)ccc2[nH]1` [Example 55, 2-((3S,5S)-3,5-Dimethyl-morpholin-4-ylmethyl)-5-[4-(2H-pyrazol-3-yl)-phenoxy]-1H-benzoimidazole] are 100 nM and 0.13 nM.
`c1cc(-c2ccc(Oc3ccc4nc(CN5CCCC6(COC6)C5)ccc4c3)nc2)[nH]n1` [Example 48, 2-(2-Oxa-6-aza-spiro[3.5]non-6-ylmethyl)-6-[5-(2H-pyrazol-3-yl)-pyridin-2-yloxy]-quinoline]: the values for the IC50 (in test [1]; against human LTA4 hydrolase) were 740 nM and 2.1 nM, respectively.
On the same counts, the results for `c1cc(-c2ccc(Oc3ccc4cc(CN5CCCC5)ccc4c3)nc2)[nH]n1` [Example 3, 5-(2H-Pyrazol-3-yl)-2-(6-pyrrolidin-1-ylmethyl-naphthalen-2-yloxy)-pyridine] are 120 nM and 0.34 nM.
